Twelve compounds from patent publication US6979686B1, “Substituted pyrazoles as p38 kinase inhibitors” (Pharmacia Corporation, priority 2001, dated 2005) can be followed below.

One may read the IC50 as the concentration that gives 50% inhibition.

Structures can show the parent of a compound that is named as a salt. Where two headings read alike, the source gives them in different places.

Experiment [1] concerns TNF-a, human peripheral blood mononuclear cells. Kind of experiment: LPS stimulation of human PBMs, TNF-a by ELISA. It counts as cell-based. As to conditions: Table 5, LPS-stimulated human PBM cells, TNF cell assay. The procedure: Method of Isolation of Human Peripheral Blood Mononuclear Cells:
Human whole blood was collected in Vacutainer tubes containing EDTA as an anticoagulant. A blood sample (7 ml) was carefully layered over 5 ml PMN Cell Isolation Medium (Robbins Scientific) in a 15 ml round bottom centrifuge tube. The sample was centrifuged at 450-500×g for 30-35 minutes in a swing out rotor at room temperature. After centrifugation, the top band of cells were removed and washed 3 times with PBS w/o calcium or magnesium. The cells were centrifuged at 400×g for 10 minutes at room temperature. The cells were resuspended in Macrophage Serum Free Medium (Gibco BRL) at a concentration of 2 million cells/ml.
LPS Stimulation of Human PBMs:
Compounds were dissolved in DMSO initially and diluted in TCM for a final concentration of 0.1% DMSO. LPS (Calbiochem, 20 ng/ml, final concentration) was then added at a volume of 0.010 ml. Cultures were incubated overnight at 37° C. Supernatants were then removed and tested by ELISA for TNF-a and IL1-b. Viability was analyzed using MTS. After 0.1 ml supernatant was collected, 0.020 ml MTS was added to remaining 0.1 ml cells.
A general note: ELISA stands for enzyme-linked immunosorbent assay.

Experiment [2] relates to TNF-α, U937 human histiocytic lymphoma cell line. The experiment can be described thus: LPS stimulation of TNF production by U937 cells. As to conditions: Table 5; LPS-stimulated U937 cells, TNF-α; read-out: U937 Cell Assay IC50. It is filed as cell-based. The method, boiled down: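 U937 cells differentiated 24 h with 20 ng/ml PMA, rested 24-48 h, used at 2 million cells/ml. Compounds in 0.1% DMSO final; LPS (E. coli, 100 ng/ml final) stimulation for 4 h at 37° C. Released TNF-α measured by ELISA; IC50 (μM).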

Another experiment has as its target T1, human p38 kinase alpha (Homo sapiens, UniProt Q16539).
T1 construct: GST (N, cleaved yes); made in house; host or cells: E. coli DH10B
The experiment can be described thus: p38 kinase in vitro assay, phosphorylation of biotinylated PHAS-I with 32P-ATP. As to conditions: activated human p38 kinase alpha, PHAS-I substrate, 50 μM unlabeled ATP; read-out: p38 kinase IC50. It is filed as biochemical.

In experiment [3] the test system is collagen-induced arthritis, DBA/1 male mice. The experiment can be described thus: Collagen-induced arthritis in mice. It counts as in vivo, mouse. To be noted: oral gavage b.i.d., day 20 to day 56. The procedure:
Induction and Assessment of Collagen-induced Arthritis in Mice:
Arthritis was induced in mice according to the procedure set forth in J. M. Stuart, Collagen Autoimmune Arthritis, Annual Rev. Immunol. 2:199 (1984), which is incorporated herein by reference. Specifically, arthritis was induced in 8-12 week old DBA/1 male mice by injection of 50 μg of chick type II collagen (CII) (provided by Dr. Marie Griffiths, Univ. of Utah, Salt Lake City, Utah) in complete Freund's adjuvant (Sigma) on day 0 at the base of the tail. Injection volume was 100 μl. Animals were boosted on day 21 with 50 μg of CII in incomplete Freund's adjuvant (100 μl volume). Animals were evaluated several times each week for signs of arthritis. Any animal with paw redness or swelling was counted as arthritic. Scoring of arthritic paws was conducted in accordance with the procedure set forth in Wooley et al., Genetic Control of Type II Collagen Induced Arthritis in Mice: Factors Influencing Disease Suspectibility and Evidence for Multiple MHC Associated Gene Control., Trans. Proc., 15:180 (1983). Scoring of severity was carried out using a score of 1-3 for each paw (maximal score of 12/mouse). Animals displaying any redness or swelling of digits or the paw were scored as 1. Gross swelling of the whole paw or deformity was scored as 2. Ankylosis of joints was scored as 3. Animals were evaluated for 8 weeks. 8-10 animals per group were used.
Preparation and Administration of Compounds:
The compounds tested on mice having collagen-induced arthritis were prepared as a suspension in 0.5% methylcelluose (Sigma, St. Louis, Mo.), 0.025% Tween 20 (Sigma). The compound suspensions were administered by oral gavage in a volume of 0.1 ml b.i.d. Administration began on day 20 post collagen injection and continued daily until final evaluation on day 56. Scoring of arthritic paws was conducted as set forth above.

The test system of experiment [4] is TNF alpha, BALB/c mice injected with LPS. The experiment can be described thus: Mouse model of LPS-induced TNF alpha production. It is filed as in vivo. To be noted: Table 6; mouse LPS, head '8 h', dose 30, oral gavage. The method, boiled down:
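Female BALB/c mice aged 10–12 weeks received 100 ng LPS i.v. and were bled 1 h later, with serum TNF measured by ELISA. Compound was given by oral gavage in mg/kg at the stated hours before LPS. Values are % inhibition against vehicle-treated LPS mice.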

The target in experiment [5] is T2, human GST-p38 kinase alpha (Homo sapiens, UniProt Q16539).
T2 construct: made in house; host or cells: E. coli DH10B
Kind of experiment: p38 kinase in vitro assay, second format, phosphorylation of EGFRP with 33P-ATP. It counts as biochemical. The protocol: The ability of compounds to inhibit human p38 kinase alpha was evaluated using two in vitro assay methods. In the first method, activated human p38 kinase alpha phosphorylates a biotinylated substrate, PHAS-I (phosphorylated heat and acid stable protein-insulin inducible), in the presence of gamma ^32P-ATP (^32P-ATP). PHAS-I was biotinylated prior to the assay and provides a means of capturing the substrate which is phosphorylated during the assay. p38 Kinase was activated by MKK6. Compounds were tested in 10 fold serial dilutions over the range of 100 μM to 0.001 μM using 1% DMSO. Each concentration of inhibitor was tested in triplicate.
A second assay format was also employed that is based on p38 kinase alpha induced phosphorylation of EGFRP (epidermal growth factor receptor peptide, a 21 mer) in the presence of ^33P-ATP. Compounds were tested in 10 fold serial dilutions over the range of 100 μM to 0.001 μM in 10% DMSO. Each concentration of inhibitor was tested in triplicate. Compounds were evaluated in 50 μl reaction volumes in the presence of 25 mM Hepes pH 7.5, 10 mM magnesium acetate, 4% glycerol, 0.4% bovine serum albumin, 0.4 mM DTT, 50 μM unlabeled ATP, 25 μg EGFRP (200 μM), and 0.05 μCi gamma ^33P-ATP. Reactions were initiated by addition of 0.09 μg of activated, purified human GST-p38 kinase alpha. Activation was carried out using GST-MKK6 (5:1,p38:MKK6) for one hour at 30° C. in the presence of 50 μM ATP. Following incubation for 60 minutes at room temperature, the reaction was stopped by addition of 150 μl of AG 1X8 resin in 900 mM sodium formate buffer, pH 3.0 (1 volume resin to 2 volumes buffer). The mixture was mixed three times with pipetting and the resin was allowed to settle. A total of 50 μl of clarified solution head volume was transferred from the reaction wells to Microlite-2 plates. 150 μl of Microscint 40 was then added to each well of the Microlite plate, and the plate was sealed, mixed, and counted.

[6] abbreviates: Table 10, 10% DMSO, @ 1.0 hour, read-out: p38α Kinase Assay IC50.

T2 sequence (Q16539 whole entry): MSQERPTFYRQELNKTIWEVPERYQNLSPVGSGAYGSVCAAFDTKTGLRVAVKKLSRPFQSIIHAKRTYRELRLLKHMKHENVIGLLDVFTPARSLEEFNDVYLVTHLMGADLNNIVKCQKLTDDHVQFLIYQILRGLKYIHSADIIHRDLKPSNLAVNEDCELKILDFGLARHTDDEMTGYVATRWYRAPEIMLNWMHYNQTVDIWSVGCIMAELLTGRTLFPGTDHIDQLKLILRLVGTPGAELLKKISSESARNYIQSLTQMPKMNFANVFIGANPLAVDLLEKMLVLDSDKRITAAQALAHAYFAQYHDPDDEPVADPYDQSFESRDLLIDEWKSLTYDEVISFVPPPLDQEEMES
T1 sequence (Q16539 whole entry): as above

In experiment [1] (PBMC), `Cc1[nH]nc(-c2ccc(Cl)cc2)c1-c1ccncc1` [Example 7, 4-(3-(4-chlorophenyl)-5-methyl-1H-pyrazol-4-yl)pyridine] gave an IC50 of 200 nM.
The same measure, in the same setting: the figure for `CCc1[nH]nc(-c2cccc(C)c2)c1-c1ccncc1` [Example 45] is below 100 nM.
With `CCCc1[nH]nc(-c2cccc(C)c2)c1-c1ccncc1` [Example A-26], the IC50 in experiment [2] is 29 nM; on human p38 kinase alpha it was 700 nM; in experiment [1], below 100 nM.
On to `CCc1[nH]nc(-c2ccccc2)c1-c1ccncc1` [Example A-43], for which the IC50 was 243 nM in experiment [2], below 100 nM at human p38 kinase alpha and below 100 nM in experiment [1].
Take `Cc1[nH]nc(-c2ccsc2)c1-c1ccncc1` [Example A-49]: in experiment [1], the IC50 worked out at 6800 nM.
`Fc1ccc(-c2[nH]nc(N3CCNCC3)c2-c2ccncc2)cc1` [Example A-172, 1-[5-(4-fluorophenyl)-4-(4-pyridinyl)-1H-pyrazol-3-yl]piperazine trihydrochloride]: in experiment [3] (100 mpk), the “% Inhibition of Arthritis” value is 49.3 @ 100 mpk %.
As for `Fc1ccc(-c2[nH]nc(C3CC3)c2-c2ccncc2)cc1` [Example A-189, 4-[3-cyclopropyl-5-(4-fluorophenyl)-1H-pyrazol-4-yl]pyridine], in experiment [3] (30 mpk), the “% Inhibition of Arthritis” value is recorded as 51.6 @ 30 mpk %.
Turning to `OCCn1cc(-c2ccncc2)c(-c2ccc(F)cc2)n1` [Example A-210, 3-(4-fluorophenyl)-4-(4-pyridinyl)-1H-pyrazole-1-ethanol], in experiment [3] (15 mpk), the “% Inhibition of Arthritis” value is given as 58.5 @ 15 mpk %. In addition, the “mLPS 8 h percent inhibition” value in experiment [4] is recorded as 85%.
On to `Fc1ccc(-c2[nH]ncc2-c2ccnc(NCCn3ccnc3)c2)cc1` [Example A-268, 4-[3-(4-fluorophenyl)-1H-pyrazol-4-yl]-N-[2-(1H-imidazol-1-yl)ethyl]-2-pyridinamine], for which the IC50 in experiment [5] (Table 6, EGFRP assay procedure, read-out: p38^2 (p38α in vitro assay, EGFRP assay procedure) IC50) is below 10 nM.
As for `O[C@H]1CC[C@H](Nc2cc(-c3c[nH]nc3-c3ccc(F)cc3)ccn2)CC1` [Example A-386, trans-4-[[4-[3-(4-fluorophenyl)-1H-pyrazol-4-yl]-2-pyridinyl]amino]cyclohexanol], in experiment [5] (Table 9, 10% DMSO, read-out: p38α Kinase Assay IC50), the IC50 turned out to be 16 nM.
On to `O=C(C(=C1SCS1)c1ccncc1)c1ccc(I)cc1` [Example A-401], for which, in experiment [5] (setting [6]), the IC50 is 21200 nM.
The same measure, in the same setting: the figure for `COc1ccc(-c2n[nH]c(N3CCN(C)CC3)c2-c2ccncc2)cc1` [Example A-415, 1-(4-(4-methoxyphenyl)-4-(4-pyridinyl)-1H-pyrazol-3-yl]-4-methylpiperazine] is 510 nM.
